Where two headings read alike, the source gives them in different places.
Legend:
[1] = target: Recombinant human MCL-1 protein (Homo sapiens (Human), UniProt Q07820); assay: MCL-1/Bim Binding AlphaLISA Assay; conditions: 6×His-Mcl-1 (171-327) and biotinylated-Bim peptide (51-76)
Protocol: MCL-1/Bim Binding AlphaLISA Assay.
Inhibition of the MCL-1 and Bim interaction was measured in the following AlphaLISA assay.
Recombinant human MCL-1 protein (C-terminal 6×His Tagged Mcl-1 containing residues 171-327) was generated at Gilead Sciences, Inc. (Foster City, Calif.). A biotinylated peptide derived from human Bim (residues 51-76) was purchased from CPC Scientific (Sunnyvale, Calif.). (CPC 834113). AlphaLISA anti-6His-acceptor beads (AL128R), AlphaScreen Streptavidin donor beads (6760002B), and Proxiplate-384 Plus (6008289) were purchased from PerkinElmer.
The AlphaLISA assay was performed in a 384-well Proxiplate in a total volume of 40 μL. The reaction mixture contained 0.0625 nM 6×His-Mcl-1 (171-327), 0.0625 nM biotinylated-Bim peptide, 10 μg/mL AlphaLISA anti-6×His-AlphaLISA acceptor beads, 40 μg/mL AlphaScreen streptavidin donor beads, and serially diluted test compounds in the binding buffer (20 mM Hepes, pH 7.5 (Teknova H1035); 150 mM NaCl (Promega V4221); 0.002% Brij 35 (Thermo Scientific 20150); 1 mM Dithiothreitol (DTT) Solution (Affymetrix 70726); 0.01% BSA (BioLabs B9000S)). 1,000× test compounds were pre-spotted onto 384-well Proxiplate (Labcyte Echo) by Echo 555 Liquid Handler (Labcyte Inc., San Jose, Calif.) followed by incubation of 5 μl Mcl-1 (171-327) for 1 hour. Then 5 μL Bim (51-76) was added and incubated for 2 hours. Five μL AlphaLISA anti-6His-AlphaLISA acceptor beads were then added for 1 hour followed by addition of 5 μL AlphaScreen streptavidin donor beads for 1 hour. The reaction plates were then read on an Envision multimode reader (PerkinElmer) using AlphaScreen settings. […] Percent inhibition was calculated as shown below: % Inhibition=100%*(Well−Neg)/(Pos−Neg) Neg: negative control, DMSO Pos: positive control, no Mcl-1 protein, no biotinylated-Bim peptide

SKBR3 Cells = assay: SKBR3 Cell Viability Assay; assay type: cell-based; conditions: CellTiter Glo luminescence, read-out: MCL-1 CV SKBR3 EC50
Protocol: SKBR3 Cell Viability Assay Materials
SKBR3 Cells (ATCC HTB-30) were obtained from ATCC (Manassas, Va.) and cultured in McCoy 5A's medium (ATCC 30-2007)+10% fetal bovine serum (SH30071.03, HyClone, Pittsburgh, Pa.) plus 1× Penicillin-Streptomycin L-glutamine (Corning 30-009-C1, Corning, N.Y.)).
The cell viability assay was conducted in a 384-well tissue culture plate (Grenier 781086, Monroe, N.C.) in a total volume of 70 μL. Test compounds were prepared in 1,000×, serially diluted, and pre-spotted into 384-well tissue culture plate by Echo 555 Liquid Handler (Labcyte Inc., San Jose, Calif.). Seventy pi of 6,000 SKBR3 cells were dispensed into each well of the plate and incubated at 37° C. with 5% CO2 for 72 hours. At the end of incubation, 2× CellTiter Glo (CTG) reagents (1 part buffer with 2 parts substrate) (Promega, Madison, Wis.) were prepared, and the plate and the reagent were equilibrated to room temperature for 30 minutes. CTG reagent was added to each plate by Biomek FX at 20 μL/well with 5 times pipetting and mixing to induce cell lysis. Luminescence was read by Envision multimode reader (PerkinElmer). […] Percent inhibition was calculated as followed: % Inhibition=100%*(Well−Neg)/(Pos−Neg) Neg, negative control, DMSO Pos, positive control, 10 μM Puromycin

Recombinant human MCL-1 protein, sequence (Q07820 171-327): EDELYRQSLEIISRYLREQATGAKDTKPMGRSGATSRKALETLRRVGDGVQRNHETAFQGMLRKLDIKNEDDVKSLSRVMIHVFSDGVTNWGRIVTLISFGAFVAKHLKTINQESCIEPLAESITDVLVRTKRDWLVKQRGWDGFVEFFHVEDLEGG

IC50 [1] [nM] | EC50 (SKBR3 Cells; Homo sapiens, SK-BR-3, 72 h) [nM] | Structure (SMILES) | EC50 (SKBR3 Cells; 72 hours) [nM]
0.2 | 596 | CO[C@H]1/C=C/CCC[S@@](=O)(NC(=O)CCc2cocn2)=NC(=O)c2ccc3c(c2)N(C[C@@H]2CC[C@H]21)C[C@@]1(CCCc2cc(Cl)ccc21)CO3 [Example 57] | 
 |  | CO[C@H]1/C=C/CCC[S@@](=O)(NC(=O)CCc2csc(C)n2)=NC(=O)c2ccc3c(c2)N(C[C@@H]2CC[C@H]21)C[C@@]1(CCCc2cc(Cl)ccc21)CO3 [Example 99] | 2090
 |  | CO[C@H]1/C=C/C[C@H](C)C[S@@](=O)(NC(=O)N2CC(C(C)(C)O)C2)=NC(=O)c2ccc3c(c2)N(C[C@@H]2CC[C@H]21)C[C@@]1(CCCc2cc(Cl)ccc21)CO3 [Example 237] | 121
 |  | CO[C@H]1/C=C/C[C@H](C)C[S@@](=O)(NC(=O)[C@H]2Cc3ccccc3CO2)=NC(=O)c2ccc3c(c2)N(C[C@@H]2CC[C@H]21)C[C@@]1(CCCc2cc(Cl)ccc21)CO3 (single isomer, unassigned) [Example 143] | 219
 |  | CO[C@H]1/C=C/CCC[S@@](=O)(NC(=O)COC2CCOCC2)=NC(=O)c2ccc3c(c2)N(C[C@@H]2CC[C@H]21)C[C@@]1(CCCc2cc(Cl)ccc21)CO3 [Example 105] | 351
 | 259 | CO[C@H]1/C=C/CCC[S@@](=O)(NC(=O)CCc2ccnn2C)=NC(=O)c2ccc3c(c2)N(C[C@@H]2CC[C@H]21)C[C@@]1(CCCc2cc(Cl)ccc21)CO3 [Example 22] | 
 |  | CO[C@H]1/C=C/CCC[S@@](=O)(NC(=O)c2cc3ccccc3n2C)=NC(=O)c2ccc3c(c2)N(C[C@@H]2CC[C@H]21)C[C@@]1(CCCc2cc(Cl)ccc21)CO3 [Example 98] | 2190
 |  | CO[C@H]1/C=C/CCC[S@@](=O)(NC(=O)COc2ccccc2)=NC(=O)c2ccc3c(c2)N(C[C@@H]2CC[C@H]21)C[C@@]1(CCCc2cc(Cl)ccc21)CO3 [Example 96] | 604
 |  | CO[C@H]1/C=C/C[C@H](C)C[S@@](=O)(NC(=O)N2CC3(CCO3)C2)=NC(=O)c2ccc3c(c2)N(C[C@@H]2CC[C@H]21)C[C@@]1(CCCc2cc(Cl)ccc21)CO3 [Example 230] | 47.1
 |  | CO[C@H]1/C=C/CCC[S@@](=O)(NC(=O)COc2ccnn2C)=NC(=O)c2ccc3c(c2)N(C[C@@H]2CC[C@H]21)C[C@@]1(CCCc2cc(Cl)ccc21)CO3 [Example 100] | 2260
 |  | CO[C@H]1/C=C/CCC[S@@](=O)(NC(=O)CCc2nnc(C)s2)=NC(=O)c2ccc3c(c2)N(C[C@@H]2CC[C@H]21)C[C@@]1(CCCc2cc(Cl)ccc21)CO3 [Example 102] | 891
 |  | CCC1CN(C(=O)N[S@@]2(=O)=NC(=O)c3ccc4c(c3)N(C[C@@H]3CC[C@H]3[C@@H](OC)/C=C/C[C@H](C)C2)C[C@@]2(CCCc3cc(Cl)ccc32)CO4)C1 [Example 242] | 84
 |  | CO[C@H]1/C=C/CCC[S@@](=O)(NC(=O)CCc2ncsc2C)=NC(=O)c2ccc3c(c2)N(C[C@@H]2CC[C@H]21)C[C@@]1(CCCc2cc(Cl)ccc21)CO3 [Example 101] | 2590
 |  | CO[C@H]1/C=C/CCC[S@@](=O)(NC(=O)NC2(C(F)(F)F)CC2)=NC(=O)c2ccc3c(c2)N(C[C@@H]2CC[C@H]21)C[C@@]1(CCCc2cc(Cl)ccc21)CO3 [Example 32] | 1480
 |  | CO[C@H]1/C=C/CCC[S@@](=O)(NC(=O)CCc2c(C)cnn2C)=NC(=O)c2ccc3c(c2)N(C[C@@H]2CC[C@H]21)C[C@@]1(CCCc2cc(Cl)ccc21)CO3 [Example 103] | 10000
0.702 | 4560 | COc1nn(C)cc1C(=O)N[S@@]1(=O)=NC(=O)c2ccc3c(c2)N(C[C@@H]2CC[C@H]2[C@@H](OC)/C=C/[C@H](OC(=O)c2cn(C)nc2OC)CC1)C[C@@]1(CCCc2cc(Cl)ccc21)CO3 [Example 391] | 
 |  | COc1nn(C)cc1C(=O)N[S@@]1(=O)=NC(=O)c2ccc3c(c2)N(C[C@@H]2CC[C@H]2[C@@H](OC(=O)OC(C)C)/C=C/C[C@H](C)C1)C[C@@]1(CCCc2cc(Cl)ccc21)CO3 [Example 384] | 154
 |  | CCN(CC)C(=O)OC1CN(C(=O)N[S@@]2(=O)=NC(=O)c3ccc4c(c3)N(C[C@@H]3CC[C@H]3[C@@H](OC)/C=C/C[C@H](C)C2)C[C@@]2(CCCc3cc(Cl)ccc32)CO4)C1 [Example 226] | 71.3
 |  | COC1CCN(C(=O)N[S@@]2(=O)=NC(=O)c3ccc4c(c3)N(C[C@@H]3CC[C@H]3[C@@H](OC)/C=C/C[C@H](C)C2)C[C@@]2(CCCc3cc(Cl)ccc32)CO4)CC1 [Example 320] | 36.6
 |  | CCOC1CN(C(=O)N[S@@]2(=O)=NC(=O)c3ccc4c(c3)N(C[C@@H]3CC[C@H]3[C@@H](OC)/C=C/C[C@H](C)C2)C[C@@]2(CCCc3cc(Cl)ccc32)CO4)C1 [Example 235] | 39.8
0.069 | 78.3 | CCc1nn(C)cc1C(=O)N[S@@]1(=O)=NC(=O)c2ccc3c(c2)N(C[C@@H]2CC[C@H]2[C@@H](OC)/C=C/C[C@H](C)[C@H]1C)C[C@@]1(CCCc2cc(Cl)ccc21)CO3 [Example 188] | 
 |  | COc1nn(C2CC2)cc1C(=O)N[S@@]1(=O)=NC(=O)c2ccc3c(c2)N(C[C@@H]2CC[C@H]2[C@@H](OC)/C=C/C[C@H](C)C1)C[C@@]1(CCCc2cc(Cl)ccc21)CO3 [Example 262] | 85.8
 |  | CO[C@H]1/C=C/C[C@H](C)C[S@@](=O)(NC(=O)N2CC3(CCCO3)C2)=NC(=O)c2ccc3c(c2)N(C[C@@H]2CC[C@H]21)C[C@@]1(CCCc2cc(Cl)ccc21)CO3 [Example 231] | 40
 |  | CO[C@H]1/C=C/C[C@H](C)C[S@@](=O)(NC(=O)C2CC(OC(F)F)C2)=NC(=O)c2ccc3c(c2)N(C[C@@H]2CC[C@H]21)C[C@@]1(CCCc2cc(Cl)ccc21)CO3 (stereo partly shown) [Example 431] | 233
 |  | COc1nn(C)cc1C(=O)N[S@@]1(=O)=NC(=O)c2ccc3c(c2)N(C[C@@H]2CC[C@H]2[C@@H](OC(=O)CC(C)C)/C=C/C[C@H](C)C1)C[C@@]1(CCCc2cc(Cl)ccc21)CO3 [Example 381] | 534
 |  | CO[C@H]1/C=C/CCC[S@@](=O)(NC(=O)CCC(F)(F)F)=NC(=O)c2ccc3c(c2)N(C[C@@H]2CC[C@H]21)C[C@@]1(CCCc2cc(Cl)ccc21)CO3 [Example 94] | 902
 |  | CO[C@H]1/C=C/CCC[S@@](=O)(NC(=O)CCCC(F)(F)F)=NC(=O)c2ccc3c(c2)N(C[C@@H]2CC[C@H]21)C[C@@]1(CCCc2cc(Cl)ccc21)CO3 [Example 95] | 1100
0.06 | 210 | CO[C@H]1/C=C/C[C@H](C)C[S@@](=O)(NC(=O)NC2CC2)=NC(=O)c2ccc3c(c2)N(C[C@@H]2CC[C@H]21)C[C@@]1(CCCc2cc(Cl)ccc21)CO3 [Example 170] | 
 |  | CO[C@H]1/C=C/C[C@H](C)C[S@@](=O)(NC(=O)N2CC(C#N)C2)=NC(=O)c2ccc3c(c2)N(C[C@@H]2CC[C@H]21)C[C@@]1(CCCc2cc(Cl)ccc21)CO3 [Example 233] | 47.2
 |  | CO[C@H]1/C=C/CCC[S@@](=O)(NC(=O)CCc2ccccc2)=NC(=O)c2ccc3c(c2)N(C[C@@H]2CC[C@H]21)C[C@@]1(CCCc2cc(Cl)ccc21)CO3 [Example 97] | 788

Source: patent US11643400B2, “MCL-1 inhibitors” (Gilead Sciences, Inc., priority 2018, dated 2023)
